From the NIST ThermoML archive (doi:10.1021/je3000876)

How the values were obtained:
[1] = for viscosity / mass density: 101.33 kPa, Liquid; for viscosity: Cone and plate viscometry; for mass density: Vibrating tube method
[2] = refractive index (Na D-line) (dimensionless); settings: 101.33 kPa, Liquid, Standard Abbe refractometry

NC(=O)Cn1cc[n+](CCCCn2cc[n+](CC(N)=O)c2)c1.O=S(=O)([N-]S(=O)(=O)C(F)(F)F)C(F)(F)F.O=S(=O)([N-]S(=O)(=O)C(F)(F)F)C(F)(F)F
Settings	mass density, [1] [kg/m3]	refractive index, [2]	viscosity, [1] [mPa·s]
298.15 K	1590.17	1.4546	8689
303.15 K	1585.41	1.4532	4730
308.15 K	1580.62	1.4518	3285
313.15 K	1575.98	1.4504	2365
318.15 K	1572.04	1.4491	1824
323.15 K	1567.22	1.4477	1517
328.15 K	1562.31	1.4464	1323
333.15 K	1557.66	1.4451	1221
338.15 K	1552.61	1.4439	1129
343.15 K	1548.03	1.443	1098

Settings	Glass transition temperature [°C]
[1], Glass, DTA	-40
